# According to patent US8993608B2, “Method for inhibiting topoisomerase II” (Synta Pharmaceuticals Corp., priority 2007, dated 2015):
# Legend:
# topoisomerase II = biological target: T1, topoisomerase II (Homo sapiens, UniProt P11388); experiment: kDNA decatenation assay for inhibition of topoisomerase II; format: biochemical; details: 200 nM, lane 8 of FIG. 3
# T1 construct: purchased TopoGEN, Inc
# Experimental: The ability of compounds of the invention to inhibit the activity of topoisomerase II was examined with a kDNA decatenation assay (TopoGEN, Inc. Port Orange, Fla.). Substrate kDNA was mixed with compounds and incubated at 37° C. for 30 min. The reaction was stop by adding ⅕ volume of stop buffer. 20 μl of the reaction was loaded on 1% agarose gel. Image of decatenation of kDNA by compounds was taken by Kodak Image Station 440.
# In the presence of topoisomerase II, decatenated nicked and circular kDNAs are located at the bottom of the gel. […] Table 9 indicates the ability of compounds of the invention to inhibit the activity of topoisomease II.
# human topo II = human topo II (Homo sapiens, UniProt P11388); details: Gadelle et al., Biochemical Pharmacology (2006); cited from earlier work
# Her2 = experiment: Degradation of Her2 in BT-474 cells after treatment (Method 1, SDS-PAGE/immunoblot); format: cell-based, Human; details: overnight
# Experimental: Human high-Her2 breast carcinoma BT474 (HTB-20), SK-BR-3 (HTB-30) and MCF-7 breast carcinoma (HTB-22) from American Type Culture Collection, Va., USA were grown in Dulbecco's modified Eagle's medium with 4 mM L-glutamine and antibiotics (100 IU/ml penicillin and 100 ug/ml streptomycine;GibcoBRL). To obtain exponential cell growth, cells were trypsinized, counted and seeded at a cell density of 0.5×10^6 cells /ml regularly, every 3 days. All experiments were performed on day 1 after cell passage.
# BT-474 cells were treated with 0.5 μM, 2 μM, or 5 μM of 17AAG (a positive control) or 0.5 μM, 2 μM, or 5 μM of Compound 108 or Compound 49 overnight in DMEM medium. After treatment, each cytoplasmic sample was prepared from 1×10^6 cells by incubation of cell lysis buffer (#9803, cell Signaling Technology) on ice for 10 minutes. The resulting supernatant used as the cytosol fractions were dissolved with sample buffer for SDS-PAGE and run on a SDS-PAGE gel, blotted onto a nitrocellulose membrane by using semi-dry transfer. Non-specific binding to nitrocellulose was blocked with 5% skim milk in TBS with 0.5% Tween at roomtemperature for 1 hour, then probed with anti-Her2/ErB2 mAb (rabbit IgG, #2242, Cell Signaling) and anti-Tubulin (T9026, Sigma) as housekeeping control protein. HRP-conjugated goat anti-rabbit IgG (H+L) and HRP-conjugated horse anti-mouse IgG (H+L) were used as secondary Ab (#7074, #7076, Cell Signaling) and LumiGLO reagent, 20× Peroxide (#7003, Cell Signaling) was used for visualization.
# Hsp90 protein = experiment: Malachite Green Assay of ATPase activity of Hsp90 protein; format: biochemical
# Experimental: Hsp90 protein was obtained from Stressgen (Cat#SPP-770). Assay buffer: 100 mM Tris-HCl, Ph7.4, 20 mM KCl, 6 mM MgCl2. […] Malachite green reagent was added to the reaction. […] The plate was read by an ELISA reader with an absorbance at 620 nm.
# Sequence of human topo II (P11388 whole entry): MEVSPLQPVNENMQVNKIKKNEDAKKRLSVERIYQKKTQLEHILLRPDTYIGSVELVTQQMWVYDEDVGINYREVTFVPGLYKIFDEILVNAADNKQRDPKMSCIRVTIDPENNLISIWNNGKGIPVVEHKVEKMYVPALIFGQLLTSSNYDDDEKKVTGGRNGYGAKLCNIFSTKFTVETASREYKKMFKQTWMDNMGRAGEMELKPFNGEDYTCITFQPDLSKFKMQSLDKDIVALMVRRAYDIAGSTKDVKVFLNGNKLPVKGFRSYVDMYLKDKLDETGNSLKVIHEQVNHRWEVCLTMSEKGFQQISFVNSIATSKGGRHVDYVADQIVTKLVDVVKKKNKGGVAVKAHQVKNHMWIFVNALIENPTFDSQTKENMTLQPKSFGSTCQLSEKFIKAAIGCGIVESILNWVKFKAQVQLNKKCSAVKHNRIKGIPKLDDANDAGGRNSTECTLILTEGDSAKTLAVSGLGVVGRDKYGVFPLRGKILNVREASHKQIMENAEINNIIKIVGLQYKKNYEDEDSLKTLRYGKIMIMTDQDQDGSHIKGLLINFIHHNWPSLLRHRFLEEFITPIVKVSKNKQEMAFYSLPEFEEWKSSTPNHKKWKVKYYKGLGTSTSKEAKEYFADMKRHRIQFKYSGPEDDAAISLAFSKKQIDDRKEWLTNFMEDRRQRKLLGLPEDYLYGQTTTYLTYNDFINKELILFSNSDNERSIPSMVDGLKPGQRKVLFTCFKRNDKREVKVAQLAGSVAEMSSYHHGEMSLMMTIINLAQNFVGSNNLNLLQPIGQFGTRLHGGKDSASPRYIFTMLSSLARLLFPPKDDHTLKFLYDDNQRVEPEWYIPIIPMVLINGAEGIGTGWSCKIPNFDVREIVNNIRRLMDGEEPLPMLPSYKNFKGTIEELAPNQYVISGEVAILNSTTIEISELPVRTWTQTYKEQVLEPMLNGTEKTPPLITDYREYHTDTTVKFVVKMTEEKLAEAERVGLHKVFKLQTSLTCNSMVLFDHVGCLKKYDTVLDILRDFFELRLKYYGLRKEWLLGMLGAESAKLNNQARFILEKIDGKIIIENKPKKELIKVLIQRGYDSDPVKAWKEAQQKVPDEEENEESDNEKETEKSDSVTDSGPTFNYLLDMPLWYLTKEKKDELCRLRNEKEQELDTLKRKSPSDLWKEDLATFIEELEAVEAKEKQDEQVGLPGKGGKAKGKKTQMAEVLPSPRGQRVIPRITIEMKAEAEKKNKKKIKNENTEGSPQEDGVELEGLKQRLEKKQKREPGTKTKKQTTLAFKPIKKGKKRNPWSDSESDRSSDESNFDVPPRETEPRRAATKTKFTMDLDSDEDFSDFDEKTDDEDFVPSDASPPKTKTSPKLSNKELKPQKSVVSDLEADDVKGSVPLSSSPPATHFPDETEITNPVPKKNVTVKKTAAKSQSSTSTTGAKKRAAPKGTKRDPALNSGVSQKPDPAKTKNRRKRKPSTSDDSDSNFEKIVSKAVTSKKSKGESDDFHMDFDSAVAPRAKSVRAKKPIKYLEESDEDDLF
# T1 sequence (P11388 whole entry): as above
compound,measurement,setting,value
C[C@@H]1C[C@H]2O[C@@H]2/C=C\C=C\C(=O)Cc2c(Cl)c(O)cc(O)c2C(=O)O1 [radicicol],inhibition of the activity of topoisomerase II,topoisomerase II,completely inhibits the activity of topoisomerase II
same,inhibition of the activity of human topo II,human topo II,can inhibit the activity of human topo II
"CCc1cc(-c2nnc(S)n2-c2cccc3ccccc23)c(O)cc1O [Compound 49, 3-(2,4-Dihydroxy-5-ethyl-phenyl)-4-(naphthalen-1-yl)-5-mercapto-triazole]",degradation of Her2,Her2; 0.5 μM,partial degradated
same,degradation of Her2,Her2; 2 μM,complete degradation
same,degradation of Her2,Her2; 5 μM,complete degradation
"Oc1ccc(-c2nnc(S)n2-c2cccc3ccccc23)c(O)c1 [Compound 108, 3-(2,4-Dihydroxy-phenyl)-4-(naphthalen-1-yl)-5-mercapto-triazole]",inhibition of ATPase activity of Hsp90,Hsp90 protein; 4 μM,significant inhibition
same,inhibition of ATPase activity of Hsp90,Hsp90 protein; 40 μM,even greater inhibition of ATPase activity of Hsp90 than geldanamycin
same,degradation of Her2,Her2; 0.5 μM,partially degradated
same,degradation of Her2,Her2; 2 μM,partially degradated
same,degradation of Her2,Her2; 5 μM,almost completely degraded
